For two molecules, reduction of mortality and effect on mortality results are on record in patent US11260084B2 (priority 2017, dated 2022).

Test [1] concerns Eimeria acervulina, Eimeria maxima and Eimeria tenella. Put plainly: Example 8 broiler study under severe coccidiosis challenge conditions. It is filed as in vivo, Ross 708 broiler chicks. To be noted: 28-day mortality; compared to the challenged control. The source says: EXAMPLE 8 of the present disclosure describes a study to evaluate the efficacy of a combination of xylanase (10 U/g feed), B. licheniformis strain PWD-1 (1×10^5 CFU/g feed), and B. amyloliquefaciens strain Ba-BPD1 (5×10^5 CFU/g feed) referred to as “Xyl+B+Y”, to minimize the severity of gut lesions and improve overall livability of broiler chickens fed standard corn-soy diets and reared under severe coccidiosis challenge conditions. In the study chicks were twice challenged with a live vaccine containing the live oocysts of highly-immunogenic, coccidiostat-sensitive strains of Eimeria acervulina, Eimeria maxima and Eimeria tenella by oral gavage and the Xyl+B+Y combination was compared to salinomycin sodium which is referred to as “Coccidiostat” in FIG. 13. […]
MATERIALS AND METHODS: Four hundred male Ross 708 broiler chicks were randomly assigned to 1 of 4 dietary treatments, with 7 replicate battery cages per treatment (except Treatment 1, the unchallenged positive control, which contained 4 replicate cages), and 16 birds per cage. […] The key parameters evaluated were upper-tract intestinal lesion scores, middle-tract intestinal lesion scores, mortality/livability, and feed conversion ratio (FCR).

Test [2] concerns Clostridium perfringens, Eimeria acervulina, and Eimeria maxima, and Eimeria tenella. It is filed as in vivo, Ross 708 broilers. Particulars: at 21-days and 42-days of age; versus control.

For the molecule `CC[C@@H](C(=O)[C@@H](C)[C@@H](O)[C@H](C)[C@@H]1O[C@@H]([C@@H](CC)C(=O)O)CC[C@@H]1C)[C@H]1O[C@]2(C=C[C@@H](O)[C@]3(CC[C@@](C)([C@H]4CC[C@](O)(CC)[C@H](C)O4)O3)O2)[C@H](C)C[C@@H]1C` [Coccidiostat, salinomycin sodium], the reduction of mortality in test [1] was 25%.

For the molecule bacitracin methylene disalicylate [AGP], the effect on mortality result in test [2] is “did not significantly improve”.
